The record followed here is ChEMBL document CHEMBL5291721, “A preclinical secondary pharmacology resource illuminates target-adverse drug reaction associations of marketed drugs” (Nat Commun, 2023).

Assay [1] addresses T1, Muscarinic acetylcholine receptor M1 (Homo sapiens, UniProt P11229).
T1 sequence (P11229 whole entry): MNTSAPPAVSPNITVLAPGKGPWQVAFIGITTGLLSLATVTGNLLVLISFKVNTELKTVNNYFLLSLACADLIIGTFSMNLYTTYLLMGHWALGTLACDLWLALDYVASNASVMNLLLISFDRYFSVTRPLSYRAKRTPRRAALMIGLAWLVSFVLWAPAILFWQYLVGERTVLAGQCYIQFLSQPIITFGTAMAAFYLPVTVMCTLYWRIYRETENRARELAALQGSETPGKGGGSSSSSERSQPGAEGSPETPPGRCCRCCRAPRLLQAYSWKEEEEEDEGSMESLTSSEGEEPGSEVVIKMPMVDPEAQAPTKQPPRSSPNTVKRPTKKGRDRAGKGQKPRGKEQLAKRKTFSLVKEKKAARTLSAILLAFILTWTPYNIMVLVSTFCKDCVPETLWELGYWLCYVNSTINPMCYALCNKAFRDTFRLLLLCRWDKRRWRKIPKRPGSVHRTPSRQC
The class given is functional, cell-based.

Assay [2] deals with T1, Muscarinic acetylcholine receptor M1. In kind it is functional, cell-based. This is another data set of the same source.
In assay [3] the target is Type-2 angiotensin II receptor (Homo sapiens, UniProt P50052). The class given is functional.
Type-2 angiotensin II receptor, sequence (P50052 whole entry): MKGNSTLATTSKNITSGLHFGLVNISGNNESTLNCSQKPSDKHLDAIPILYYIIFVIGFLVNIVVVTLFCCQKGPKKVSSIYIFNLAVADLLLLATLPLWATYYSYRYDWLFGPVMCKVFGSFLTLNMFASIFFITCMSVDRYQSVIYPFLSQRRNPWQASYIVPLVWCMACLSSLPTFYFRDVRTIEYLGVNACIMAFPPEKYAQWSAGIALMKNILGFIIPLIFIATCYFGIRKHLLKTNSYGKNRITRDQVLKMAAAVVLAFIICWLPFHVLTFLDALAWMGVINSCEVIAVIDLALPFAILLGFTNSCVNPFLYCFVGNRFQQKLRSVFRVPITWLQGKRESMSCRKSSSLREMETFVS
In assay [4] the target is Sodium-dependent serotonin transporter (Homo sapiens, UniProt P31645).
Sodium-dependent serotonin transporter, sequence (P31645 whole entry): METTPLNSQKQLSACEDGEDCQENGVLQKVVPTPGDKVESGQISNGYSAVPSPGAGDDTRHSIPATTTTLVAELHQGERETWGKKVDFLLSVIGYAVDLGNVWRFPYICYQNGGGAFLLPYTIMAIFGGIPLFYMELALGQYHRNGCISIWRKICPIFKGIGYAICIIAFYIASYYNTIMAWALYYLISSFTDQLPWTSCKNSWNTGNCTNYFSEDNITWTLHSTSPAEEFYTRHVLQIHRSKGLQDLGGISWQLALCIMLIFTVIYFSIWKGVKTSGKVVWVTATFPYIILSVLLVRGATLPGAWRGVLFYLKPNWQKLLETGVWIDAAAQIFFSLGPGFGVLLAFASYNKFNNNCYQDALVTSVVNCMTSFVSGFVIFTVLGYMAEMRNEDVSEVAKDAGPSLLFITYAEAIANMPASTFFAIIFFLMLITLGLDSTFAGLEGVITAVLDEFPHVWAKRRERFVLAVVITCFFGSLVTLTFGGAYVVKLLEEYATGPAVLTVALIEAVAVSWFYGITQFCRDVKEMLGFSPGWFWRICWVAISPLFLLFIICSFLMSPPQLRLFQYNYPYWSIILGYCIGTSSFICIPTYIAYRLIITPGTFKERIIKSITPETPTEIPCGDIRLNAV
The target of assay [5] is Voltage-dependent L-type calcium channel subunit alpha-1C (Homo sapiens, UniProt Q13936). In kind it is functional, cell-based.
Voltage-dependent L-type calcium channel subunit alpha-1C, sequence (Q13936 whole entry): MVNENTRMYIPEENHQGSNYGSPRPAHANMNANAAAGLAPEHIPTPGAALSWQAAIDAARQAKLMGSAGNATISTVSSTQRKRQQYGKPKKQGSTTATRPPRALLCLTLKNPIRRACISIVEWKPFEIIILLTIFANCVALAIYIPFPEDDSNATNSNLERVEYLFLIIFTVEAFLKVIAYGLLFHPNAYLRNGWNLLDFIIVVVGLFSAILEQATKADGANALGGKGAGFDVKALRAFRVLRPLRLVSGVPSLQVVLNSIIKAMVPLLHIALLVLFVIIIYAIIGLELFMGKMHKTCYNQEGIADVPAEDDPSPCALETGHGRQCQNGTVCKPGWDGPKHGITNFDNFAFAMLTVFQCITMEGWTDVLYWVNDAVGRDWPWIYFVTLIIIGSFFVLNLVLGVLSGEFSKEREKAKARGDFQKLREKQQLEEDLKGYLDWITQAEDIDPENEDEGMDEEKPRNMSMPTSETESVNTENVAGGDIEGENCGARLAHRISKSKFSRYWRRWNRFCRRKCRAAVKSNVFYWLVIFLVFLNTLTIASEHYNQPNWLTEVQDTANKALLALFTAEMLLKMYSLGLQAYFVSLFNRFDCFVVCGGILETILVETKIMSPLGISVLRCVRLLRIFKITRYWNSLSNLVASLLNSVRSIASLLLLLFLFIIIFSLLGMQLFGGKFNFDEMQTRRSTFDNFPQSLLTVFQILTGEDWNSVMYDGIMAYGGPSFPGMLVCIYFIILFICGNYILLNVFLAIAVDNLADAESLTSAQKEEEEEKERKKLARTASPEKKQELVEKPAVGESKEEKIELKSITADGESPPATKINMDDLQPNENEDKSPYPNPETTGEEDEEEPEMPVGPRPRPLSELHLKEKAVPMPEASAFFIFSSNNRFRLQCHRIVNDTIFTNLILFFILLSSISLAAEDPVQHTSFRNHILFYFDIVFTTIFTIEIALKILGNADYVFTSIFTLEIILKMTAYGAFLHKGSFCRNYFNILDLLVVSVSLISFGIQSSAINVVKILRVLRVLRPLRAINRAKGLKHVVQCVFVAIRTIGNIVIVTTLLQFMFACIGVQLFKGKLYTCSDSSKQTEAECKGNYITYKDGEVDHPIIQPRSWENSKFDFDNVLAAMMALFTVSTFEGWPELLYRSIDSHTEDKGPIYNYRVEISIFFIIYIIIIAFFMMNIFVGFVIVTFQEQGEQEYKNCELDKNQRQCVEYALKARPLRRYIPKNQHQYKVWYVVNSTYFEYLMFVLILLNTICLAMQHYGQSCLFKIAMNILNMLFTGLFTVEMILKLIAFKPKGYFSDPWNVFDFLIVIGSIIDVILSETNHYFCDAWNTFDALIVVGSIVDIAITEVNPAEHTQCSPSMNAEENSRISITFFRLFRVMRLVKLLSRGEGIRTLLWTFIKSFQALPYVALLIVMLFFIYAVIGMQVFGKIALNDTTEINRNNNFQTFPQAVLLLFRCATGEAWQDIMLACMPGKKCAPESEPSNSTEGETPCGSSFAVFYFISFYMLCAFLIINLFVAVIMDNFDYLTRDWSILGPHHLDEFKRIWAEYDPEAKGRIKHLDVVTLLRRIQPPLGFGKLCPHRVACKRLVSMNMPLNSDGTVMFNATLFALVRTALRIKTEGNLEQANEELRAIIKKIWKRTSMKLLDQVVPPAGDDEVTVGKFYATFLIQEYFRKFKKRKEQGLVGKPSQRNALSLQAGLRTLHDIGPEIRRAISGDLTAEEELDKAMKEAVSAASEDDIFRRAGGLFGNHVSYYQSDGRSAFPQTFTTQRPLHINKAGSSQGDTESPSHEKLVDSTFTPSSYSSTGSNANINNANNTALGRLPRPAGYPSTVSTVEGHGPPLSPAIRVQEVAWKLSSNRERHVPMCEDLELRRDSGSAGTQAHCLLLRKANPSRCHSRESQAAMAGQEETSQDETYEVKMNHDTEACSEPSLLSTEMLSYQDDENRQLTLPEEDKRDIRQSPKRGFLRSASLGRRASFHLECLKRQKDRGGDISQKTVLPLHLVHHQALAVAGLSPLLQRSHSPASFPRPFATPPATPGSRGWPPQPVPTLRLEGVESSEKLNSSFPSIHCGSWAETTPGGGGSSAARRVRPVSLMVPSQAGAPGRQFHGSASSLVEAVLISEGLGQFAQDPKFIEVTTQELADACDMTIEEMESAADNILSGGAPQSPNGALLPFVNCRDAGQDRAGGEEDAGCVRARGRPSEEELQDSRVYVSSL
Assay [6] concerns the target T1, Muscarinic acetylcholine receptor M1.
For assay [7], the target named is D(1A) dopamine receptor (Homo sapiens, UniProt P21728). The class given is functional, cell-based.
D(1A) dopamine receptor, sequence (P21728 whole entry): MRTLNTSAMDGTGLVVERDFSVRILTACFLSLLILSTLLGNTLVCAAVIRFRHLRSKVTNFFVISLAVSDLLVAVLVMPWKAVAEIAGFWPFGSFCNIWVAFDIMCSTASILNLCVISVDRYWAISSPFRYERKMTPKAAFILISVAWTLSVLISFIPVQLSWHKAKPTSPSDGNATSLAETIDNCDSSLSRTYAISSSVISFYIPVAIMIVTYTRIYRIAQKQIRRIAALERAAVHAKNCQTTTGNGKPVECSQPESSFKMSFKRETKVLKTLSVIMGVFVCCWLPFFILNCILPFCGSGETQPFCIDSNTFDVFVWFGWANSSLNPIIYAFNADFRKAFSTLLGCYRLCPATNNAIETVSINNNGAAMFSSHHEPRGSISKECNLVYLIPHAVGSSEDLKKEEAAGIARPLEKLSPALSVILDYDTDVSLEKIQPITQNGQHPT

As a reminder, the AC50 is the concentration giving half of the maximal activity seen.
Further: assay procedure not described here.

With `CC1OC2(CS1)CN1CCC2CC1` (configuration not stated) [CEVIMELINE], the AC50 in assay [1] is 19 µM; in assay [2] it was over 30 µM.
`CC(CCc1ccc(O)cc1)NCCc1ccc(O)c(O)c1` (configuration not stated) [DOBUTAMINE] had an AC50 in assay [3] of over 100 µM.
With `OC1(c2ccc(Cl)cc2)c2ccccc2C2=NCCN21` (configuration not stated) [MAZINDOL], the AC50 in assay [4] is 230 nM; in assay [5] it was over 50 µM.
Turning to `O=[N+]([O-])c1ccc(O)c2ncccc12` [NITROXOLINE], in assay [6], the AC50 was over 30 µM.
As to `Cc1cc(C(C)(C)C)cc(C)c1CC1=NCCN1` [XYLOMETAZOLINE], the AC50 in assay [7] is over 30 µM.
